Test results from patent US8609862B2, “Use of an adrenal hormone-modifying agent” (Novartis AG, priority 2010, dated 2013).

Legend:
CYP11B2 = molecular target: T1, CYP11B2 (Rattus norvegicus, UniProt P30099); assay: In vivo assay: plasma aldosterone concentration (PAC) in ACTH-infused conscious rats; conditions: ACTH infusion; for % Reduction from baseline PAC t = 1 h: 1 h after dosing; for % Reduction from baseline PAC 8 h: 8 h after dosing
T1 construct: from tissue; host or cells: whole animal: conscious male Sprague-Dawley rats under ACTH infusion (the adrenal gland as site of the enzyme comes from the background, b5)
T1 sequence (P30099 35-510): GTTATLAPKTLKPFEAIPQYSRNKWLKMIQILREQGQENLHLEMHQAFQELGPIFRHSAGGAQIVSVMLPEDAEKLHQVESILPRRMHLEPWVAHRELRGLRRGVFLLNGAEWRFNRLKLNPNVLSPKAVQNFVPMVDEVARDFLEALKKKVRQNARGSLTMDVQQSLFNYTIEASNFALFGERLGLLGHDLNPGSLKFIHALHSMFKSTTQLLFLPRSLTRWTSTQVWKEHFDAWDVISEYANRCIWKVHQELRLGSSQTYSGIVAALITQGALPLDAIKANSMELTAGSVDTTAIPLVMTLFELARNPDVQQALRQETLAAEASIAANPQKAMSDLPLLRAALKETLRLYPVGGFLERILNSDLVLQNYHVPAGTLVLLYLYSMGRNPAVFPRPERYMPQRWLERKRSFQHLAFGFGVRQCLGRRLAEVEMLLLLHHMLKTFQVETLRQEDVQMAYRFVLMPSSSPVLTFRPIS
Experimental: (§1) The in vivo effects of compounds on plasma aldosterone concentration (PAC) and plasma glucocorticoid (corticosterone) concentration (PCC) were evaluated in conscious rats.
(§2) Male Sprague-Dawley rats (˜400-600 g body weight) were surgically instrumented with a femoral arterial and venous catheter. The catheters were exteriorized from the lower back through a stainless steel spring and swivel system that enabled the rats to move freely at all times. Rats were allowed at least one week to recover from the surgery before initiating the experiments.
(§3) On the morning of the experiment, a pretreatment blood sample was collected on heparin from the arterial catheter. The blood samples were spun in a refrigerated centrifuge to generate plasma. The plasma was stored frozen at −70° C. until the later measurement of PAC and PCC (by radioimmunoassay). Adrenocorticotropic hormone (ACTH(1-24), referred to herein as ACTH) was then administered as an intravenous (i.v.) bolus (100 ng/kg) followed by a continuous i.v. infusion (30 ng/kg/min) for 9 hours. After one hour of infusion, a baseline (time 0) blood sample was withdrawn from the arterial catheter and processed and stored as described above. The rats were then dosed (typically 0.01 to 100 mg/kg) with the test compound p.o. by oral gavage or parenterally via the arterial catheter (i.a.). Compounds were formulated in an appropriate vehicle (e.g., water (p.o.) or saline (i.a.)) at a physiologically compatible volume (typically 1-2 ml/kg). Additional blood samples were withdrawn at 0.083 (i.a. only), 0.25, 0.5, 1, 2, 3, 4, 5, 6, 7, 8, and 24 hours after dosing with compound and processed and stored as above for later determination of PAC, PCC, and plasma compound concentration (by LC/MS/MS). Oral bioavailability and traditional pharmacokinetic (PK) parameters were estimated from the plasma compound concentrations.
(§4) Based on the plasma compound concentration at each dose, the PK/PD (pharmacodynamic) profiles (reduction of PAC and PCC) of each compound were determined.

Human CYP11B2 = molecular target: T2, Human CYP11B2 (Homo sapiens, UniProt P19099); assay: In vitro human CYP11B2 (aldesterone) assay in NCI-H295R cells; type: cell-based; conditions: 1 μM Ang II, 24 hr, aldosterone production by SPA
T2 construct: host or cells: NCI-H295R human adrenocortical carcinoma cells, stimulated with 1 uM Ang II
T2 sequence (P19099 25-503): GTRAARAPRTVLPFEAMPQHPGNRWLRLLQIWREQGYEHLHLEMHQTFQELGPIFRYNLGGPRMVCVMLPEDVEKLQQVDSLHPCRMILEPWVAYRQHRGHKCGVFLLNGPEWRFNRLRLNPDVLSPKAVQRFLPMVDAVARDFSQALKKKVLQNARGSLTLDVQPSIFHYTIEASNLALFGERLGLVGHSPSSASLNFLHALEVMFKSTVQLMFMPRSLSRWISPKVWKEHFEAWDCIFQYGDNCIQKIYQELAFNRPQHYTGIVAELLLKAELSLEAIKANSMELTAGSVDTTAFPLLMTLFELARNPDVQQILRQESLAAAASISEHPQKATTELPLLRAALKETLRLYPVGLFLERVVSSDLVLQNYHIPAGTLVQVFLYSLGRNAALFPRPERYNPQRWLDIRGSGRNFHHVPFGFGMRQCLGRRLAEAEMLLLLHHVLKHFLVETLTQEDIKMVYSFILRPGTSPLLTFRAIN
From the text: Human adrenocortical carcinoma NCI-H295R cell line was obtained from American Type Culture Collection (Manassas, Va.). […] Anti-mouse PVT scintillation proximity assay (SPA) beads and NBS 96-well plates were obtained from GE Health Sciences (Piscataway, N.J.) and Corning (Acton, Mass.), respectively. Solid black 96-well flat bottom plates were purchased from Costar (Corning, N.Y.). Aldosterone and angiotensin (Ang II) were purchased from Sigma (St. Louis, Mo.). D-[1,2,6,7-^3H(N)]aldosterone was acquired from PerkinElmer (Boston, Mass.). Nu-serum was a product of BD Biosciences (Franklin Lakes, N.J.).
Measurement of aldosterone activity can also be performed using a 96-well plate format. […] The amount of aldosterone in each sample is calculated by comparing with a standard curve generated using known quantities of the hormone.
Inhibition of the release of certain steroids can be used as a measure of the respective enzyme inhibition by the added test compounds. […] The inhibition plot is calculated by fitting a 4-parameter logistic function to the raw data points using the least squares method. The equation of the 4-parameter logistic function is calculated as follows: Y=(d−a)/((1+(x/c)b))+a, where: a=minimum data level, b=gradient, I […], d=maximum data level, x=inhibitor concentration.

CYP11B1 = molecular target: T3, CYP11B1 (Rattus norvegicus, UniProt P15393); assay: In vivo CYP11B1 assay: plasma corticosterone concentration (PCC) in ACTH-infused conscious rats; conditions: ACTH infusion; for % Reduction from baseline PCC t = 1 h: 1 h after dosing; for % Reduction from baseline PCC 8 h: 8 h after dosing
T3 construct: from tissue; host or cells: whole animal: conscious male Sprague-Dawley rats under ACTH infusion (the adrenal gland as site of the enzyme comes from the background, b5)
T3 sequence (P15393 25-499): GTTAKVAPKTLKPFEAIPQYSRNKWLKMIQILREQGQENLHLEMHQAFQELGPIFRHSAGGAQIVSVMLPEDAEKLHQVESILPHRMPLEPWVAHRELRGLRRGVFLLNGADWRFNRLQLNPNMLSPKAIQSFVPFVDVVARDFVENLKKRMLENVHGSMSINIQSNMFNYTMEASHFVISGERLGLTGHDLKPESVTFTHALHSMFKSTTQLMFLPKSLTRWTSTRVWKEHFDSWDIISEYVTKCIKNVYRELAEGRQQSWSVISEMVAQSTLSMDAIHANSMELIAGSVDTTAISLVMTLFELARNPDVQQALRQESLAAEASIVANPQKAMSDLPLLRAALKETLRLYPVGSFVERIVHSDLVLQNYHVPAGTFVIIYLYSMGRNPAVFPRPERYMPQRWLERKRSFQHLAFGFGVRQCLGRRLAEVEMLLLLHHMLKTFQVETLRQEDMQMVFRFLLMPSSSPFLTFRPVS
Experimental: as §1, §2, §3, §4

% Reduction from baseline PAC t = 1 h (CYP11B2; 10 mg/kg p.o.) [%]	% Reduction from baseline PAC 8 h (CYP11B2; 10 mg/kg p.o.) [%]	IC50 (Human CYP11B2) [nM]	% Reduction from baseline PCC t = 1 h (CYP11B1; 10 mg/kg p.o.) [%]	% Reduction from baseline PCC 8 h (CYP11B1; 10 mg/kg p.o.) [%]	% Reduction from baseline PAC t = 1 h (CYP11B2; 3 mg/kg i.a.) [%]	% Reduction from baseline PAC 8 h (CYP11B2; 3 mg/kg i.a.) [%]	% Reduction from baseline PCC t = 1 h (CYP11B1; 3 mg/kg i.a.) [%]	% Reduction from baseline PCC 8 h (CYP11B1; 3 mg/kg i.a.) [%]	% Reduction from baseline PAC t = 1 h (CYP11B2; 30 mg/kg i.a.) [%]	% Reduction from baseline PAC 8 h (CYP11B2; 30 mg/kg i.a.) [%]	% Reduction from baseline PCC t = 1 h (CYP11B1; 30 mg/kg i.a.) [%]	% Reduction from baseline PCC 8 h (CYP11B1; 30 mg/kg i.a.) [%]	SMILES
79	89	1.2	70	87									N#Cc1ccc(C2CCCCc3cncn32)c(Br)c1 (racemic) [3-bromo-4-(6,7,8,9-tetrahydro-5H-imidazo[1,5-a]azepin-5-yl)benzonitrile racemate, 3-bromo-4-(6,7,8,9-tetrahydro-5H-imidazo[1,5-a]azepin-5-yl)benzonitrile]
		0.4			83	76	89	43					N#Cc1ccc(C2CCCCc3cncn32)c(-c2ccc(F)cc2)c1 (single isomer, unassigned) [4′-fluoro-6-(6,7,8,9-tetrahydro-5H-imidazo[1,5-a]azepin-5-yl)biphenyl-3-carbonitrile]
		2.7							23	59	76	78	COc1ccc(CN(C)C(=O)C2(c3ccc(C#N)cc3Cl)CCc3cncn32)cc1 (stereo not drawn) [5-(2-chloro-4-cyanophenyl)-N-(4-methoxybenzyl)-N-methyl-6,7-dihydro-5H-pyrrolo[1,2-c]imidazole-5-carboxamide]
